Experimental data as given in patent publication US20100298141A1, “SUBSTITUTED PYRIDINE N-OXIDE HERBICIDES” (E. I. DU PONT DE NEMOURS AND COMPANY, priority 2007, published 2010).

Experiments:
giant foxtail = experiment: Test A pre-/postemergence greenhouse test; type: in vivo, Setaria faberi; conditions: for Foxtail, Giant plant response rating: 0 to 100 scale; for Plant response rating, Foxtail, Giant: 0 to 100 scale where 0 is no effect and 100 is complete control
Summary of the method: (§1)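 Sowing in loam/sand; same-day pre (directed soil spray) and post (foliar, 1–2 leaf, 2–10 cm) treatment with surfactant-containing non-phytotoxic solvent formulation; ~10 days in greenhouse; eye-scored injury against untreated plants.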

crabgrass = experiment: Test A pre-/postemergence greenhouse test; type: in vivo, Digitaria sanguinalis; conditions: for Crabgrass, Large plant response rating: 0 to 100 scale; for Plant response rating, Crabgrass, Large: 0 to 100 scale where 0 is no effect and 100 is complete control
Summary of the method: as §1

barnyardgrass [1] = experiment: Test A pre-/postemergence greenhouse test; type: in vivo, Echinochloa crus-galli; conditions: for Barnyardgrass plant response rating: 0 to 100 scale; for Plant response rating, Barnyardgrass: 0 to 100 scale where 0 is no effect and 100 is complete control
Summary of the method: as §1

pigweed = experiment: Test C pre-/postemergence test; type: in vivo, Amaranthus retroflexus; conditions: for Plant response rating (0 to 100), Pigweed: 250 g ai/ha
Summary of the method: (§2)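 Compounds in a non-phytotoxic solvent with surfactant applied preemergence to seeded pots and, at the same time, postemergence to plants 2–18 cm tall (1- to 4-leaf stage). Paddy tests: pots flooded to 3 cm, compound applied into the water, depth held throughout.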

Surinam grass = experiment: Test C pre-/postemergence test; type: in vivo, Brachiaria decumbens; conditions: for Plant response rating (0 to 100), Surinam Grass: Preemergence, 250 g ai/ha; for Surinam Grass plant response rating: preemergence, scale 0 (no effect) to 100 (complete control)
Summary of the method: as §2

catchweed bedstraw = experiment: Test C pre-/postemergence test; type: in vivo, Galium aparine; conditions: for Plant response rating (0 to 100), Galium: 250 g ai/ha
Summary of the method: as §2

lambsquarters = experiment: Test C pre-/postemergence test; type: in vivo, Chenopodium album; conditions: for Plant response rating (0 to 100), Lambsquarters: 250 g ai/ha
Summary of the method: as §2

woolly cupgrass = experiment: Test C pre-/postemergence test; type: in vivo, Eriochloa villosa; conditions: for Plant response rating (0 to 100), Cupgrass, Woolly: 250 g ai/ha
Summary of the method: as §2

green foxtail = experiment: Test C pre-/postemergence test; type: in vivo, Setaria viridis; conditions: for Plant response rating (0 to 100), Foxtail, Green: 250 g ai/ha
Summary of the method: as §2

duck salad = experiment: Test C flooded paddy test; type: in vivo, Heteranthera limosa; conditions: Flood
Summary of the method: (§3)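 Test compounds are applied straight into paddy water held 3 cm above the soil surface, with that flood maintained for the whole test. After 13 to 15 days in the greenhouse, each species is scored visually relative to controls.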

blackgrass = experiment: Test C pre-/postemergence test; type: in vivo, Alopecurus myosuroides; conditions: for Plant response rating (0 to 100), Blackgrass: 250 g ai/ha
Summary of the method: as §2

velvetleaf [2] = experiment: Test C pre-/postemergence test; type: in vivo, Abutilon theophrasti; conditions: for Plant response rating (0 to 100), Velvetleaf: Preemergence, 250 g ai/ha; for Velvetleaf plant response rating: preemergence, scale 0 (no effect) to 100 (complete control)
Summary of the method: as §2

common ragweed = experiment: Test C pre-/postemergence test; type: in vivo, Ambrosia elation; conditions: for Plant response rating (0 to 100), Ragweed: 250 g ai/ha
Summary of the method: as §2

soybean = experiment: Test C pre-/postemergence test; type: in vivo, Glycine max; conditions: for Plant response rating (0 to 100), Soybean: 250 g ai/ha
Summary of the method: as §2

velvetleaf [3] = experiment: Test A pre-/postemergence greenhouse test; type: in vivo, Abutilon theophrasti; conditions: for Velvetleaf plant response rating: 0 to 100 scale; for Plant response rating, Velvetleaf: 0 to 100 scale where 0 is no effect and 100 is complete control
Summary of the method: as §1

barnyardgrass [4] = experiment: Test C flooded paddy test; type: in vivo, Echinochloa crus-galli; conditions: Flood
Summary of the method: as §3

downy brome = experiment: Test C pre-/postemergence test; type: in vivo, Bromus tectorum; conditions: for Plant response rating (0 to 100), Bromegrass, Downy: 250 g ai/ha
Summary of the method: as §2

[5] = Postemergence, 125 g ai/ha, 0 is no effect, 100 is complete control
[6] = Postemergence, 500 g ai/ha, 0 is no effect, 100 is complete control
[7] = Preemergence, 125 g ai/ha, 0 no effect, 100 complete control
[8] = 31 g ai/ha, Preemergence, scale 0 to 100
[9] = preemergence, 125 g ai/ha, scale 0 (no effect) to 100 (complete control)
[10] = 62 g ai/ha, preemergence, scale 0 (no effect) to 100 (complete control)
[11] = 31 g ai/ha, scale 0 to 100 (0 no effect, 100 complete control)
[12] = 62 g ai/ha, scale 0 to 100, 0 no effect, 100 complete control, 13 to 15 days
[13] = 125 g ai/ha, scale 0 to 100, 0 no effect, 100 complete control, 13 to 15 days
[14] = 250 g ai/ha, scale 0 to 100 (0 no effect, 100 complete control)

Compound: Cn1nc(C(F)(F)F)c(CS(=O)(=O)c2cccc[n+]2[O-])c1Cl [Compound 9]
- Foxtail, Giant plant response rating (giant foxtail; [5]): 90
- Foxtail, Giant plant response rating (giant foxtail; [6]): 90
- Foxtail, Giant plant response rating (giant foxtail; [7]): 100
- Plant response rating, Foxtail, Giant (giant foxtail; Preemergence, 500 g ai/ha): 100
- Crabgrass, Large plant response rating (crabgrass; [5]): 80
- Crabgrass, Large plant response rating (crabgrass; [6]): 90
- Crabgrass, Large plant response rating (crabgrass; [7]): 100
- Plant response rating, Crabgrass, Large (crabgrass; Preemergence, 500 g ai/ha): 100
- Barnyardgrass plant response rating (barnyardgrass [1]; [5]): 80
- Barnyardgrass plant response rating (barnyardgrass [1]; [6]): 80
- Barnyardgrass plant response rating (barnyardgrass [1]; [7]): 100
- Plant response rating, Barnyardgrass (barnyardgrass [1]; Preemergence, 500 g ai/ha): 100
- Pigweed plant response rating (pigweed; [8]): 100
- Plant response rating (0 to 100), Pigweed (pigweed; Preemergence): 100
- Pigweed plant response rating (pigweed; [9]): 100
- Plant response rating (0 to 100), Surinam Grass (Surinam grass): 100
- Surinam Grass plant response rating (Surinam grass; 125 g ai/ha): 85
- Galium plant response rating (catchweed bedstraw; [8]): 0
- Galium plant response rating (catchweed bedstraw; [10]): 100
- Plant response rating (0 to 100), Galium (catchweed bedstraw; Preemergence): 100
- Galium plant response rating (catchweed bedstraw; [9]): 100
- Lambsquarters plant response rating (lambsquarters; [8]): 0
- Plant response rating (0 to 100), Lambsquarters (lambsquarters; Preemergence): 100
- Lambsquarters plant response rating (lambsquarters; [9]): 80
- Cupgrass, Woolly plant response rating (woolly cupgrass; [8]): 0
- Plant response rating (0 to 100), Cupgrass, Woolly (woolly cupgrass; Preemergence): 100
- Cupgrass, Woolly plant response rating (woolly cupgrass; [9]): 100
- Foxtail, Green plant response rating (green foxtail; [8]): 85
- Foxtail, Green plant response rating (green foxtail; [10]): 100
- Plant response rating (0 to 100), Foxtail, Green (green foxtail; Preemergence): 100
- Foxtail, Green plant response rating (green foxtail; [9]): 100
- Plant response rating, Ducksalad (duck salad; [11]): 0
- Plant response rating, Ducksalad (duck salad; [12]): 65
- Plant response rating, Ducksalad (duck salad; [13]): 85
- Plant response rating, Ducksalad (duck salad; [14]): 90
- Blackgrass plant response rating (blackgrass; [8]): 0
- Blackgrass plant response rating (blackgrass; [10]): 50
- Plant response rating (0 to 100), Blackgrass (blackgrass; Preemergence): 95
- Blackgrass plant response rating (blackgrass; [9]): 50
- Plant response rating (0 to 100), Velvetleaf (velvetleaf [2]): 40
- Velvetleaf plant response rating (velvetleaf [2]; 125 g ai/ha): 0
- Ragweed plant response rating (common ragweed; [8]): 45
- Plant response rating (0 to 100), Ragweed (common ragweed; Preemergence): 100
- Ragweed plant response rating (common ragweed; [9]): 90
- Soybean plant response rating (soybean; [8]): 10
- Plant response rating (0 to 100), Soybean (soybean; Preemergence): 45
- Soybean plant response rating (soybean; [9]): 40
- Velvetleaf plant response rating (velvetleaf [3]; [5]): 0
- Velvetleaf plant response rating (velvetleaf [3]; [6]): 30
- Velvetleaf plant response rating (velvetleaf [3]; [7]): 50
- Plant response rating, Velvetleaf (velvetleaf [3]; Preemergence, 500 g ai/ha): 60
- Plant response rating, Barnyardgrass (barnyardgrass [4]; [11]): 0
- Plant response rating, Barnyardgrass (barnyardgrass [4]; [12]): 60
- Plant response rating, Barnyardgrass (barnyardgrass [4]; [13]): 85
- Plant response rating, Barnyardgrass (barnyardgrass [4]; [14]): 90
- Bromegrass, Downy plant response rating (downy brome; [8]): 0
- Bromegrass, Downy plant response rating (downy brome; [10]): 0
- Plant response rating (0 to 100), Bromegrass, Downy (downy brome; Preemergence): 20
- Bromegrass, Downy plant response rating (downy brome; [9]): 20

Compound: CC(c1c(C(F)(F)F)nn(C)c1Cl)S(=O)(=O)c1cccc[n+]1[O-] (centres unmarked) [Compound 10]
- Foxtail, Giant plant response rating (giant foxtail; [5]): 80
- Foxtail, Giant plant response rating (giant foxtail; [6]): 90
- Foxtail, Giant plant response rating (giant foxtail; [7]): 100
- Plant response rating, Foxtail, Giant (giant foxtail; Preemergence, 500 g ai/ha): 100
- Crabgrass, Large plant response rating (crabgrass; [5]): 80
- Crabgrass, Large plant response rating (crabgrass; [6]): 90
- Crabgrass, Large plant response rating (crabgrass; [7]): 90
- Plant response rating, Crabgrass, Large (crabgrass; Preemergence, 500 g ai/ha): 100
- Barnyardgrass plant response rating (barnyardgrass [1]; [5]): 80
- Barnyardgrass plant response rating (barnyardgrass [1]; [6]): 90
- Barnyardgrass plant response rating (barnyardgrass [1]; [7]): 100
- Plant response rating, Barnyardgrass (barnyardgrass [1]; Preemergence, 500 g ai/ha): 100
- Pigweed plant response rating (pigweed; [8]): 70
- Pigweed plant response rating (pigweed; [10]): 100
- Plant response rating (0 to 100), Pigweed (pigweed; Preemergence): 100
- Pigweed plant response rating (pigweed; [9]): 100
- Surinam Grass plant response rating (Surinam grass; 62 g ai/ha): 98
- Plant response rating (0 to 100), Surinam Grass (Surinam grass): 100
- Surinam Grass plant response rating (Surinam grass; 125 g ai/ha): 100
- Galium plant response rating (catchweed bedstraw; [8]): 0
- Galium plant response rating (catchweed bedstraw; [10]): 50
- Plant response rating (0 to 100), Galium (catchweed bedstraw; Preemergence): 100
- Galium plant response rating (catchweed bedstraw; [9]): 100
- Lambsquarters plant response rating (lambsquarters; [8]): 0
- Lambsquarters plant response rating (lambsquarters; [10]): 98
- Plant response rating (0 to 100), Lambsquarters (lambsquarters; Preemergence): 100
- Lambsquarters plant response rating (lambsquarters; [9]): 100
- Cupgrass, Woolly plant response rating (woolly cupgrass; [8]): 75
- Cupgrass, Woolly plant response rating (woolly cupgrass; [10]): 75
- Plant response rating (0 to 100), Cupgrass, Woolly (woolly cupgrass; Preemergence): 100
- Cupgrass, Woolly plant response rating (woolly cupgrass; [9]): 100
- Foxtail, Green plant response rating (green foxtail; [8]): 70
- Foxtail, Green plant response rating (green foxtail; [10]): 85
- Plant response rating (0 to 100), Foxtail, Green (green foxtail; Preemergence): 100
- Foxtail, Green plant response rating (green foxtail; [9]): 100
- Plant response rating, Ducksalad (duck salad; [11]): 30
- Plant response rating, Ducksalad (duck salad; [12]): 80
- Plant response rating, Ducksalad (duck salad; [13]): 85
- Plant response rating, Ducksalad (duck salad; [14]): 90
- Blackgrass plant response rating (blackgrass; [8]): 0
- Blackgrass plant response rating (blackgrass; [10]): 70
- Plant response rating (0 to 100), Blackgrass (blackgrass; Preemergence): 100
- Blackgrass plant response rating (blackgrass; [9]): 98
- Velvetleaf plant response rating (velvetleaf [2]; 62 g ai/ha): 0
- Plant response rating (0 to 100), Velvetleaf (velvetleaf [2]): 75
- Velvetleaf plant response rating (velvetleaf [2]; 125 g ai/ha): 5
- Ragweed plant response rating (common ragweed; [8]): 60
- Ragweed plant response rating (common ragweed; [10]): 80
- Plant response rating (0 to 100), Ragweed (common ragweed; Preemergence): 100
- Ragweed plant response rating (common ragweed; [9]): 100
- Soybean plant response rating (soybean; [8]): 0
- Soybean plant response rating (soybean; [10]): 0
- Plant response rating (0 to 100), Soybean (soybean; Preemergence): 10
- Soybean plant response rating (soybean; [9]): 5
- Velvetleaf plant response rating (velvetleaf [3]; [5]): 0
- Velvetleaf plant response rating (velvetleaf [3]; [6]): 30
- Velvetleaf plant response rating (velvetleaf [3]; [7]): 60
- Plant response rating, Velvetleaf (velvetleaf [3]; Preemergence, 500 g ai/ha): 60
- Plant response rating, Barnyardgrass (barnyardgrass [4]; [11]): 0
- Plant response rating, Barnyardgrass (barnyardgrass [4]; [12]): 30
- Plant response rating, Barnyardgrass (barnyardgrass [4]; [13]): 75
- Plant response rating, Barnyardgrass (barnyardgrass [4]; [14]): 85
- Bromegrass, Downy plant response rating (downy brome; [8]): 0
- Bromegrass, Downy plant response rating (downy brome; [10]): 0
- Plant response rating (0 to 100), Bromegrass, Downy (downy brome; Preemergence): 70
- Bromegrass, Downy plant response rating (downy brome; [9]): 10
